Laboratory results from PubChem BioAssay AID330 (DTP/NCI, 2004).
Values joined by “and” are separate entries in the source; they are usually repeats but may differ in a detail not shown here. Equal values may be shown once. Inconclusive results and toxic doses are left out.

System: P388 leukemia ip, CD2F1 mice, survival T/C
Assay: NCI In Vivo Anticancer Drug Screen. Data for tumor model P388 Leukemia (intraperitoneal) in CD2F1 (CDF1) mice
Conditions: endpoint: median survival time, higher = longer survival
Outline: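 Mice carrying the transplanted tumor received test compound or vehicle. Survival was recorded in each group, and the value is the treated-group measurement divided by that of the vehicle-treated control group.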

[1] = dose: 50.0 mg/kg/injection, schedule: Q01DX009 (ip), vehicle: saline with Tween-80
[2] = dose: 100.0 mg/kg/injection, schedule: Q01DX009 (ip), vehicle: saline with Tween-80
[3] = dose: 200.0 mg/kg/injection, schedule: Q01DX009 (ip), vehicle: saline with Tween-80
[4] = dose: 50.0 mg/kg/injection, schedule: Q01DX009 (ip), vehicle: saline
[5] = dose: 100.0 mg/kg/injection, schedule: Q01DX009 (ip), vehicle: saline
[6] = dose: 200.0 mg/kg/injection, schedule: Q01DX009 (ip), vehicle: saline
[7] = dose: 50.0 mg/kg/injection, schedule: Q01DX005 (ip), vehicle: saline with Tween-80
[8] = dose: 100.0 mg/kg/injection, schedule: Q01DX005 (ip), vehicle: saline with Tween-80
[9] = dose: 200.0 mg/kg/injection, schedule: Q01DX005 (ip), vehicle: saline with Tween-80
[10] = dose: 50.0 mg/kg/injection, schedule: Q01DX005 (ip), vehicle: Klucel (hydroxypropylcellulose) (HPC)
[11] = dose: 100.0 mg/kg/injection, schedule: Q01DX005 (ip), vehicle: Klucel (hydroxypropylcellulose) (HPC)
[12] = dose: 200.0 mg/kg/injection, schedule: Q01DX005 (ip), vehicle: Klucel (hydroxypropylcellulose) (HPC)

In the case of `COc1cc(C2Oc3c(OC)cc(CC4C(=O)OCC4Cc4ccc(OC)c(OC)c4)cc3C2CO)ccc1O` (stereo not drawn), the T/C (dose: 2.5 mg/kg/injection, schedule: Q01DX009 (ip), vehicle: saline with Tween-80) is reported as 104 % of control, the T/C (dose: 5.0 mg/kg/injection, schedule: Q01DX009 (ip), vehicle: saline with Tween-80) is reported as 102 % of control and the T/C (dose: 10.0 mg/kg/injection, schedule: Q01DX009 (ip), vehicle: saline with Tween-80) is reported as 101 % of control. The T/C (dose: 20.0 mg/kg/injection, schedule: Q01DX009 (ip), vehicle: saline with Tween-80) was 101 % of control.

For `Sc1nc2ccccc2s1.Sc1nc2ccccc2s1.Sc1nc2ccccc2s1.Sc1nc2ccccc2s1.[Cl][Rh][Cl]`, the T/C [1] was 93 % of control, the T/C [2] was 101 % of control and the T/C [3] was 101 % of control.

For `CCCCCC(C)N` (stereo not drawn), the T/C (dose: 12.5 mg/kg/injection, schedule: Q01DX009 (ip), vehicle: saline) was 95 % of control and the T/C (dose: 25.0 mg/kg/injection, schedule: Q01DX009 (ip), vehicle: saline) was 90 % of control.

For `Cc1cc(C)nc(/N=C/c2ccccc2O)c1`, the T/C [4] was 98 % of control, the T/C [5] was 88 % of control and the T/C [6] was 91 % of control.

For `Cc1[nH][nH]c(=O)c1[N+](=O)[O-]`, the T/C [1] was 99 % of control, the T/C [2] was 108 % of control and the T/C [3] was 114 % of control.

In the case of `COC(=O)C(C)=O`, the T/C (dose: 100.0 mg/kg/injection, schedule: Q04DX003 (ip), vehicle: saline) is reported as 100 % of control, the T/C (dose: 200.0 mg/kg/injection, schedule: Q04DX003 (ip), vehicle: saline) is reported as 90 % of control and the T/C (dose: 400.0 mg/kg/injection, schedule: Q04DX003 (ip), vehicle: saline) is reported as 90 % of control.

With `CC1=C2[C@H]3OC(=O)[C@@H](C)[C@@H]3CC[C@@]2(C)C=C/C1=N\O` the T/C [7] was 103 % of control, the T/C [8] was 95 % of control and the T/C [9] was 96 % of control.

In the case of `O=C1c2ccccc2C(=O)c2c(O)c(NCCO)cc(O)c21`, the T/C (dose: 100.0 mg/kg/injection, schedule: Q04DX002 (ip), vehicle: Klucel (hydroxypropylcellulose) (HPC)) is reported as 92 % of control, the T/C (dose: 200.0 mg/kg/injection, schedule: Q04DX002 (ip), vehicle: Klucel (hydroxypropylcellulose) (HPC)) is reported as 101 % of control and the T/C (dose: 400.0 mg/kg/injection, schedule: Q04DX002 (ip), vehicle: Klucel (hydroxypropylcellulose) (HPC)) is reported as 93 % of control.

With `NC(Cc1ccccc1F)c1nn[nH]n1` (stereo not drawn) the T/C (dose: 25.0 mg/kg/injection, schedule: Q01DX009 (ip), vehicle: saline with Tween-80) was 108 % of control, the T/C [1] was 97 % of control and the T/C [2] was 99 % of control.

For `NC(=O)c1ncn(C2OC(COP(=O)(O)O)C(O)C2O)n1` (stereo not drawn), the T/C [4] was 104 % of control and 106 % of control, the T/C [5] was 107 % of control and 109 % of control and the T/C [6] was 113 % of control and 120 % of control.

With `CCCCCCCCCCC[N+]1(CC)CCCC1` the T/C (dose: 0.19 mg/kg/injection, schedule: Q01DX009 (ip), vehicle: saline) was 103 % of control, the T/C (dose: 0.39 mg/kg/injection, schedule: Q01DX009 (ip), vehicle: saline) was 98 % of control and 109 % of control and the T/C (dose: 0.78 mg/kg/injection, schedule: Q01DX009 (ip), vehicle: saline) was 98 % of control and 104 % of control and 115 % of control. The T/C (dose: 1.56 mg/kg/injection, schedule: Q01DX009 (ip), vehicle: saline) was 99 % of control and the T/C (dose: 3.12 mg/kg/injection, schedule: Q01DX009 (ip), vehicle: saline) was 111 % of control.

In the case of `CCC/C(=N\NC(=S)N1CCN(c2ccccn2)CC1)c1ccccn1`, the T/C (dose: 6.25 mg/kg/injection, schedule: Q01DX005 (ip), vehicle: saline with Tween-80) is reported as 102 % of control and 104 % of control and the T/C (dose: 12.5 mg/kg/injection, schedule: Q01DX005 (ip), vehicle: saline with Tween-80) is reported as 107 % of control and 110 % of control.

`Nc1cc(N)n(N)c(=S)n1` was tested, and the T/C (dose: 25.0 mg/kg/injection, schedule: Q01DX009 (ip), vehicle: Klucel (hydroxypropylcellulose) (HPC)) was 103 % of control, the T/C (dose: 50.0 mg/kg/injection, schedule: Q01DX009 (ip), vehicle: Klucel (hydroxypropylcellulose) (HPC)) was 100 % of control and the T/C (dose: 50.0 mg/kg/injection, schedule: Q04DX003 (ip), vehicle: saline with Tween-80) was 104 % of control. The T/C (dose: 100.0 mg/kg/injection, schedule: Q01DX009 (ip), vehicle: Klucel (hydroxypropylcellulose) (HPC)) was 110 % of control, the T/C (dose: 100.0 mg/kg/injection, schedule: Q04DX003 (ip), vehicle: saline with Tween-80) was 103 % of control and the T/C (dose: 200.0 mg/kg/injection, schedule: Q01DX009 (ip), vehicle: Klucel (hydroxypropylcellulose) (HPC)) was 108 % of control. For the same compound, the T/C (dose: 200.0 mg/kg/injection, schedule: Q04DX003 (ip), vehicle: saline with Tween-80) was 99 % of control and the T/C (dose: 400.0 mg/kg/injection, schedule: Q04DX003 (ip), vehicle: saline with Tween-80) was 100 % of control.

With `O=C1C2=C(Nc3cc(Cl)ccc3N2)OC1c1ccc(C2OC3=C(Nc4ccc(Cl)cc4N3)C2=O)cc1` (stereo not drawn) the T/C (dose: 60.0 mg/kg/injection, schedule: Q01DX005 (ip), vehicle: Klucel (hydroxypropylcellulose) (HPC)) was 104 % of control, the T/C (dose: 120.0 mg/kg/injection, schedule: Q01DX005 (ip), vehicle: Klucel (hydroxypropylcellulose) (HPC)) was 111 % of control and the T/C (dose: 240.0 mg/kg/injection, schedule: Q01DX005 (ip), vehicle: Klucel (hydroxypropylcellulose) (HPC)) was 105 % of control.

For `CC12CC3CC(O)(C1)CC(O)(C3)C2`, the T/C [4] was 100 % of control, the T/C [5] was 100 % of control and the T/C [6] was 102 % of control.

For `CC(C)NCC(O)COc1c2ccccc2nc2ccccc12` (stereo not drawn), the T/C [7] was 101 % of control, the T/C [8] was 95 % of control and the T/C [9] was 102 % of control.

For `Cc1ccc(S(=O)(=O)N2CCCC2C(=O)NNC(N)=S)cc1` (stereo not drawn), the T/C [10] was 99 % of control, the T/C [11] was 89 % of control and the T/C [12] was 91 % of control.

With `O=C1NC(=O)C(=Cc2ccc(Cl)cc2)C(=O)N1` the T/C [10] was 114 % of control and the T/C [11] was 116 % of control.

For `CN=C(NCCSCc1ccc2ccccc2n1)NS(=O)(=O)c1ccccc1`, the T/C (dose: 50.0 mg/kg/injection, schedule: Q01DX005 (ip), vehicle: saline) was 106 % of control, the T/C (dose: 100.0 mg/kg/injection, schedule: Q01DX005 (ip), vehicle: saline) was 106 % of control and the T/C (dose: 200.0 mg/kg/injection, schedule: Q01DX005 (ip), vehicle: saline) was 100 % of control.

With `COc1ccc(N(C)C(=S)c2ccccc2)cc1` the T/C [10] was 103 % of control, the T/C [11] was 96 % of control and the T/C [12] was 92 % of control.

For `O=C(Nc1ccc(C2=NCCN2)cc1)c1ccc(C(=O)Nc2ccc(C3=NCCN3)cc2)c(NC(=O)c2ccc(C(=O)Nc3cc(C(=O)Nc4ccc(C5=NCCN5)cc4)ccc3C(=O)Nc3ccc(C4=NCCN4)cc3)cc2)c1`, the T/C (dose: 25.0 mg/kg/injection, schedule: Q01DX010 (ip), vehicle: saline) was 90 % of control, the T/C (dose: 50.0 mg/kg/injection, schedule: Q01DX010 (ip), vehicle: saline) was 86 % of control and the T/C (dose: 100.0 mg/kg/injection, schedule: Q01DX010 (ip), vehicle: saline) was 100 % of control. The T/C (dose: 200.0 mg/kg/injection, schedule: Q01DX010 (ip), vehicle: saline) was 100 % of control.

For `COc1ccc(C(=O)N/N=C(\C)[C@]2(O)Cc3c(O)c4c(c(O)c3[C@@H](OC3CC(N)C(O)C(C)O3)C2)C(=O)c2c(OC)cccc2C4=O)cc1` (stereo partly drawn), the T/C (dose: 0.12 mg/kg/injection, schedule: Q01DX009 (ip), vehicle: water) was 119 % of control, the T/C (dose: 0.5 mg/kg/injection, schedule: Q01DX009 (ip), vehicle: water) was 151 % of control and the T/C (dose: 1.0 mg/kg/injection, schedule: Q01DX009 (ip), vehicle: water) was 158 % of control and 164 % of control. For the same compound, the T/C (dose: 2.0 mg/kg/injection, schedule: Q01DX009 (ip), vehicle: water) was 174 % of control and 190 % of control, the T/C (dose: 4.0 mg/kg/injection, schedule: Q01DX009 (ip), vehicle: water) was 181 % of control and 211 % of control and the T/C (dose: 6.0 mg/kg/injection, schedule: Q04DX003 (ip), vehicle: water) was 112 % of control. The T/C (dose: 12.0 mg/kg/injection, schedule: Q04DX003 (ip), vehicle: water) was 121 % of control, the T/C (dose: 24.0 mg/kg/injection, schedule: Q04DX003 (ip), vehicle: water) was 166 % of control and the T/C (dose: 48.0 mg/kg/injection, schedule: Q04DX003 (ip), vehicle: water) was 118 % of control.

In the case of `CC(CN(C)C)C(/C=C/c1ccc(F)cc1)=N\Nc1ccccc1` (stereo not drawn), the T/C (dose: 60.0 mg/kg/injection, schedule: Q01DX005 (ip), vehicle: saline with Tween-80) is reported as 102 % of control and the T/C (dose: 120.0 mg/kg/injection, schedule: Q01DX005 (ip), vehicle: saline with Tween-80) is reported as 122 % of control.

In the case of `O=C(NC1CCCCC1)Oc1ccccc1-c1ccccc1`, the T/C (dose: 100.0 mg/kg/injection, schedule: Q01DX001 (ip), vehicle: saline with Tween-80) is reported as 100 % of control, the T/C (dose: 200.0 mg/kg/injection, schedule: Q01DX001 (ip), vehicle: saline with Tween-80) is reported as 100 % of control and the T/C (dose: 400.0 mg/kg/injection, schedule: Q01DX001 (ip), vehicle: saline with Tween-80) is reported as 100 % of control.
